Experimental data taken from PubChem BioAssay (NCI).
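A five-concentration, 48-hour dose response in 96-well plates underlies each endpoint, interpolated linearly between surrounding concentrations. At the GI50, growth is halved. TGI marks complete inhibition of growth.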

What was measured:
Experiment in all cases: NCI-60 cell line screen, 48 h
[1] = tested on: NCI-H23 lung
[2] = tested on: CCRF-CEM leukemia
[3] = tested on: MALME-3M melanoma
[4] = tested on: LOX IMVI melanoma
[5] = tested on: U251 CNS
[6] = tested on: A498 renal
[7] = tested on: LXFL 529 NSCLC
[8] = tested on: HCT-15 colon
[9] = tested on: EKVX NSCLC
[10] = tested on: SNB-19 CNS
[11] = tested on: M14 melanoma
[12] = tested on: SR leukemia
[13] = tested on: SK-OV-3 ovarian
[14] = tested on: OVCAR-4 ovarian
[15] = tested on: RPMI-8226 leukemia
[16] = tested on: K-562 leukemia
[17] = tested on: IGROV1 ovarian
[18] = tested on: MOLT-4 leukemia
[19] = tested on: HL-60(TB) leukemia
[20] = tested on: CAKI-1 renal
[21] = tested on: UACC-257 melanoma
[22] = tested on: NCI-H460 lung
[23] = tested on: NCI-H226 lung
[24] = tested on: SNB-75 CNS
[25] = tested on: UO-31 renal
[26] = tested on: OVCAR-5 ovarian
[27] = tested on: SF-295 CNS
[28] = tested on: OVCAR-3 ovarian
[29] = tested on: DLD-1 colon
[30] = tested on: DMS 273 small cell lung
[31] = tested on: SW-620 colon
[32] = tested on: SK-MEL-28 melanoma
[33] = tested on: COLO 205 colon
[34] = tested on: HCT-116 colon
[35] = tested on: NCI-H522 lung
[36] = tested on: HOP-62 NSCLC
[37] = tested on: KM12 colon
[38] = tested on: A549 NSCLC
[39] = tested on: TK-10 renal
[40] = tested on: SF-539 CNS
[41] = tested on: ACHN renal
[42] = tested on: HOP-18 NSCLC
[43] = tested on: 786-0 renal
[44] = tested on: SN12C renal
[45] = tested on: RXF 393 renal
[46] = tested on: HCC-2998 colon
[47] = tested on: HT29 colon
[48] = tested on: SK-MEL-2 melanoma
[49] = tested on: SNB-78 CNS
[50] = tested on: SF-268 CNS
[51] = tested on: OVCAR-8 ovarian
[52] = tested on: SK-MEL-5 melanoma
[53] = tested on: DMS 114 small cell lung
[54] = tested on: M19-MEL melanoma
[55] = tested on: HOP-92 NSCLC
[56] = tested on: UACC-62 melanoma

N.N.NCCCCCCN.O=C([O-])CCl.O=C([O-])CCl.O=C([O-])CCl.O=C([O-])CCl.[Pt+4].[Pt+4]
GI50 [1]: 27.1 µM | TGI [1]: > 50 µM | GI50 [2]: 2.73 µM | TGI [2]: > 50 µM | GI50 [3]: > 50 µM | TGI [3]: > 50 µM | GI50 [4]: > 50 µM | TGI [4]: > 50 µM | GI50 [5]: 25.2 µM | TGI [5]: > 50 µM | GI50 [6]: > 50 µM | TGI [6]: > 50 µM | GI50 [7]: > 50 µM | TGI [7]: > 50 µM | GI50 [8]: > 50 µM | TGI [8]: > 50 µM | GI50 [9]: > 50 µM | TGI [9]: > 50 µM | GI50 [10]: 27.8 µM | TGI [10]: > 50 µM | GI50 [11]: > 50 µM | TGI [11]: > 50 µM | GI50 [12]: 8.23 µM | TGI [12]: > 50 µM | GI50 [13]: > 50 µM | TGI [13]: > 50 µM | GI50 [14]: > 50 µM | TGI [14]: > 50 µM | GI50 [15]: > 50 µM | TGI [15]: > 50 µM | GI50 [16]: > 50 µM | TGI [16]: > 50 µM | GI50 [17]: > 50 µM | TGI [17]: > 50 µM | GI50 [18]: 1.73 µM | TGI [18]: > 50 µM | GI50 [19]: 15.5 µM | TGI [19]: > 50 µM | GI50 [20]: 24.7 µM | TGI [20]: > 50 µM | GI50 [21]: > 50 µM | TGI [21]: > 50 µM | GI50 [22]: 3.11 µM | TGI [22]: > 50 µM | GI50 [23]: 17 µM | TGI [23]: > 50 µM | GI50 [24]: 8.34 µM | TGI [24]: > 50 µM | GI50 [25]: > 50 µM | TGI [25]: > 50 µM | GI50 [26]: > 50 µM | TGI [26]: > 50 µM | GI50 [27]: > 50 µM | TGI [27]: > 50 µM | GI50 [28]: > 50 µM | TGI [28]: > 50 µM | GI50 [29]: > 50 µM | TGI [29]: > 50 µM | GI50 [30]: > 50 µM | TGI [30]: > 50 µM | GI50 [31]: > 50 µM | TGI [31]: > 50 µM | GI50 [32]: > 50 µM | TGI [32]: > 50 µM | GI50 [33]: 9.54 µM | TGI [33]: > 50 µM | GI50 [34]: > 50 µM | TGI [34]: > 50 µM | GI50 [35]: 10.9 µM | TGI [35]: > 50 µM | GI50 [36]: 6.04 µM | TGI [36]: > 50 µM | GI50 [37]: > 50 µM | TGI [37]: > 50 µM | GI50 [38]: > 50 µM | TGI [38]: > 50 µM | GI50 [39]: > 50 µM | TGI [39]: > 50 µM | GI50 [40]: 45.2 µM | TGI [40]: > 50 µM | GI50 [41]: 35.9 µM | TGI [41]: > 50 µM | GI50 [42]: > 50 µM | TGI [42]: > 50 µM | GI50 [43]: > 50 µM | TGI [43]: > 50 µM | GI50 [44]: 3.74 µM | TGI [44]: > 50 µM | GI50 [45]: 13.1 µM | TGI [45]: > 50 µM | GI50 [46]: > 50 µM | TGI [46]: > 50 µM | GI50 [47]: 37.1 µM | TGI [47]: > 50 µM | GI50 [48]: > 50 µM | TGI [48]: > 50 µM | GI50 [49]: > 50 µM | TGI [49]: > 50 µM | GI50 [50]: 18.8 µM | TGI [50]: > 50 µM | GI50 [51]: > 50 µM | TGI [51]: > 50 µM | GI50 [52]: > 50 µM | TGI [52]: > 50 µM

Clc1ccc(C2=NOC(C3CCCCC3)C2)cc1 (stereo not given)
TGI [53]: > 100 µM | TGI [1]: > 100 µM | TGI [2]: > 100 µM | TGI [3]: > 100 µM | TGI [5]: > 100 µM | TGI [6]: > 100 µM | TGI [7]: > 100 µM | TGI [8]: > 100 µM | TGI [11]: > 100 µM | TGI [12]: > 100 µM | TGI [13]: > 100 µM | TGI [14]: > 100 µM | TGI [15]: > 100 µM | TGI [16]: > 100 µM | TGI [17]: > 100 µM | TGI [18]: > 100 µM | TGI [19]: > 100 µM | TGI [21]: > 100 µM | TGI [22]: > 100 µM | TGI [23]: > 100 µM | TGI [54]: > 100 µM | TGI [24]: > 100 µM | TGI [25]: > 100 µM | TGI [26]: > 100 µM | TGI [27]: > 100 µM | TGI [28]: > 100 µM | TGI [29]: > 100 µM | TGI [30]: > 100 µM | TGI [31]: > 100 µM | TGI [32]: > 100 µM | TGI [33]: > 100 µM | TGI [34]: > 100 µM | TGI [35]: > 100 µM | TGI [36]: > 100 µM | TGI [37]: > 100 µM | TGI [38]: > 100 µM | TGI [39]: > 100 µM | TGI [40]: > 100 µM | TGI [41]: > 100 µM | TGI [42]: > 100 µM | TGI [43]: > 100 µM | TGI [44]: > 100 µM | TGI [55]: > 100 µM | TGI [56]: > 100 µM | TGI [46]: > 100 µM | TGI [47]: > 100 µM | TGI [48]: > 100 µM | TGI [49]: > 100 µM | TGI [50]: > 100 µM | TGI [51]: > 100 µM | TGI [52]: > 100 µM
